Data on 2 compounds can be found in ChEMBL document CHEMBL1149382 (J Med Chem, 2006).

Values after ≈ are worked out from the molar mass of the structure shown. Active and inactive are the calls of the source. The rule behind the calls is not given here.

Experiment [1] has as its system Trypanosoma cruzi. Nature of the experiment: Antiprotozoal activity against Trypanosoma cruzi amastigotes. Type of experiment: functional, organism-based.
In experiment [2] the target is lanosterol synthase / oxidosqualene cyclase (Homo sapiens) (UniProt P48449). Nature of the experiment: Inhibitory activity against oxidosqualene cyclase.
Chain of lanosterol synthase / oxidosqualene cyclase (Homo sapiens) (P48449 whole entry, looked up): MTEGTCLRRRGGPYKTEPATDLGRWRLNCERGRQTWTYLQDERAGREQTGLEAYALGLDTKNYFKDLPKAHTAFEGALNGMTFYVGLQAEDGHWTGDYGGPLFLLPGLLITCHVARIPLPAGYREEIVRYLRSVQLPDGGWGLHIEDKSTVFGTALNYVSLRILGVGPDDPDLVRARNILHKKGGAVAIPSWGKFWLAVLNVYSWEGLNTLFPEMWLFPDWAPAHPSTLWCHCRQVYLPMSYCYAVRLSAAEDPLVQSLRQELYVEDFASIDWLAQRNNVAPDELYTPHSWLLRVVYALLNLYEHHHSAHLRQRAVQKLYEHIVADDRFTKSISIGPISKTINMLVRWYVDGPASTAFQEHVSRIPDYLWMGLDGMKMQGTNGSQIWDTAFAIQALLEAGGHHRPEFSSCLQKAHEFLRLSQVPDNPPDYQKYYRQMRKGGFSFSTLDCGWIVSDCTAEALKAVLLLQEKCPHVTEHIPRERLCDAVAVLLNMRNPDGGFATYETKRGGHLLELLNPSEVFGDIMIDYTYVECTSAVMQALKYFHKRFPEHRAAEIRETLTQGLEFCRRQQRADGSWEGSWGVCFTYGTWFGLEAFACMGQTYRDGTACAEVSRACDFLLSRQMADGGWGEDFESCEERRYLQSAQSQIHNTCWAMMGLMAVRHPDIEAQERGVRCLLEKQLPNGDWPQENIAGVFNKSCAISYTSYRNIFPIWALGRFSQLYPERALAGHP
The subject of experiment [3] is Trypanosoma cruzi. As to the kind of experiment: Disruption of calcium homeostasis in Trypanosoma cruzi. The format is functional, organism-based.
Experiment [4] relates to Trypanosoma cruzi. As to the kind of experiment: Antiprotozoal activity against Trypanosoma cruzi epimastigotes. The format is functional, organism-based.
Experiment [5] concerns Trypanosoma cruzi. As to the kind of experiment: Ability to block ergosterol biosynthesis in Trypanosoma cruzi. The format is functional, organism-based.
Experiment [6] addresses T1, Farnesyl diphosphate synthase (Trypanosoma cruzi) (UniProt Q8WS26).
T1 sequence (whole entry): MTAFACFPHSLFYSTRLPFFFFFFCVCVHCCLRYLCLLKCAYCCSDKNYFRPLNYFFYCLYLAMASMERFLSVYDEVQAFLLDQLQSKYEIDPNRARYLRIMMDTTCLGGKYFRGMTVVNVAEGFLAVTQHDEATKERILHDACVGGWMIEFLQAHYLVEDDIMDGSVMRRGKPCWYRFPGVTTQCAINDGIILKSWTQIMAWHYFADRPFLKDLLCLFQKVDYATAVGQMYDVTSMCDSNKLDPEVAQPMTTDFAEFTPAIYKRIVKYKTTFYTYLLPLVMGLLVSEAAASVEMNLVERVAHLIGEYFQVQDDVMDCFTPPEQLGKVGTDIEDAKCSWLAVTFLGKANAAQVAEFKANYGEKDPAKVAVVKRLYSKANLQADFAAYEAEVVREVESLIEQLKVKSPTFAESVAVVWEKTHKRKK
Nature of the experiment: Inhibitory activity against recombinant farnesyl diphosphate synthase at 50 uM.

For the compound `CCCCc1oc2ccccc2c1C(=O)c1cc(I)c(OCCN(CC)CC)c(I)c1` [AMIODARONE], the MIC (in general, the lowest concentration that inhibits growth of the organism) in the experiment on Trypanosoma cruzi [1] is 8 µM (≈ 5.16 µg/mL); against Trypanosoma cruzi [4] it was 20 µM (≈ 12.9 µg/mL). Also, the half-inhibitory concentration (IC50) – broadly, the concentration that gives 50% inhibition – in experiment [2] is given as “Active”. Moreover, the outcome in the experiment with Trypanosoma cruzi [3] and in the experiment with Trypanosoma cruzi [5] was Active. Also, the inhibition entry in experiment [6] is “inactive”.

Consider `CC[C@@H]([C@H](C)O)n1ncn(-c2ccc(N3CCN(c4ccc(OC[C@@H]5CO[C@@](Cn6cncn6)(c6ccc(F)cc6F)C5)cc4)CC3)cc2)c1=O` [POSACONAZOLE], for which, in the experiment with Trypanosoma cruzi [1], the IC50 came out at 0.25 nM and it took 0.003 µM (≈ 0.0021 µg/mL) to inhibit growth (MIC). Also, in the experiment with Trypanosoma cruzi [3], the outcome was Active. Besides, in the experiment with Trypanosoma cruzi [4], the midpoint of inhibition, the IC50, lay at 14 nM and the MIC turned out to be 0.02 µM (≈ 0.014 µg/mL).
